Earlier results, collected in patent US8258301B2, “Urotensin II receptor antagonists” (Boehringer Ingelheim International GmbH, priority 2007, dated 2012).

Details: patients, clinical trial

## Cc1cc(NC(=O)NCCN2CCC(O)(Cc3ccccc3)CC2)c2ccccc2n1 [Palosuran]
  modulate the 24-hour urinary albumin excretion rate: 24.3%
